Where “and” joins values, the source holds several entries; their conditions need not be identical. Identical values can stand only once.
System: 323965-272-R-J2-PDC complex spheroid growth, % test/control
Experiment: Anticancer human tumor 323965-272-R-J2-PDC patient-derived pancreatic carcinoma cell line growth inhibition [Asc]
Details: for viability, T/C: stronger effect = lower value
Procedure, shortened: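 Tumor cells were grown as multicellular spheroids with stromal HUVEC and mesenchymal stem cells and treated singly or in combination. Concentrations fell in half-log steps from the clinical Cmax, or from 10 microM where none was known.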
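Also: compound exposure lasted 7 days starting three days after spheroid seeding.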
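For viability, T/C in this document: 100% = DMSO vehicle control wells with viability set relative to vehicle.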

Molecule O=C(c1ccc(F)c(F)c1Nc1ccc(I)cc1F)N1CC(O)([C@@H]2CCCCN2)C1 + CNC(C)C(=O)NC1CN(S(=O)(=O)c2cccc(S(=O)(=O)N3CCC4CCC(C(=O)NC(c5ccccc5)c5ccccc5)N4C(=O)C(NC(=O)C(C)NC)C3)c2)CCC2CCC(C(=O)NC(c3ccccc3)c3ccccc3)N2C1=O has an IC50 (curve of first compound, second compound 0.00316 µM) of 0.0978 µM, an IC50 (curve of first compound, second compound 0.01 µM) of 0.0771 µM and an IC50 (curve of first compound, second compound 0.0316 µM) of 0.0806 µM. It also gave an IC50 (curve of first compound, second compound 0.1 µM) of 0.0924 µM, an IC50 (curve of first compound, second compound 0.316 µM) of 0.0706 µM and an IC50 (curve of first compound, second compound 1 µM) of 0.0535 µM. It also gave a viability, T/C (second compound 0.00316 µM, first compound 0.00316 µM) of 117%, a viability, T/C (second compound 0.00316 µM, first compound 0.01 µM) of 99.1% and a viability, T/C (second compound 0.00316 µM, first compound 0.0316 µM) of 77.5%. It also gave a viability, T/C (second compound 0.00316 µM, first compound 0.1 µM) of 50.1%, a viability, T/C (second compound 0.00316 µM, first compound 0.316 µM) of 27.3% and a viability, T/C (second compound 0.00316 µM, first compound 1 µM) of 18.5%. For the same molecule, the viability, T/C (second compound 0.01 µM, first compound 0.00316 µM) was 105%, the viability, T/C (second compound 0.01 µM, first compound 0.01 µM) was 90.3% and the viability, T/C (second compound 0.01 µM, first compound 0.0316 µM) was 60.8%. The viability, T/C (second compound 0.01 µM, first compound 0.1 µM) was 47.7%, the viability, T/C (second compound 0.01 µM, first compound 0.316 µM) was 28.2% and the viability, T/C (second compound 0.01 µM, first compound 1 µM) was 13.2%. It also gave a viability, T/C (second compound 0.0316 µM, first compound 0.00316 µM) of 94.5%, a viability, T/C (second compound 0.0316 µM, first compound 0.01 µM) of 96.3% and a viability, T/C (second compound 0.0316 µM, first compound 0.0316 µM) of 64.3%. The viability, T/C (second compound 0.0316 µM, first compound 0.1 µM) was 47.9%, the viability, T/C (second compound 0.0316 µM, first compound 0.316 µM) was 25.7% and the viability, T/C (second compound 0.0316 µM, first compound 1 µM) was 14.4%. It also gave a viability, T/C (second compound 0.1 µM, first compound 0.00316 µM) of 102%, a viability, T/C (second compound 0.1 µM, first compound 0.01 µM) of 90.9% and a viability, T/C (second compound 0.1 µM, first compound 0.0316 µM) of 81.6%. It also gave a viability, T/C (second compound 0.1 µM, first compound 0.1 µM) of 46.4%, a viability, T/C (second compound 0.1 µM, first compound 0.316 µM) of 23.6% and a viability, T/C (second compound 0.1 µM, first compound 1 µM) of 13.1%. The viability, T/C (second compound 0.316 µM, first compound 0.00316 µM) was 110%, the viability, T/C (second compound 0.316 µM, first compound 0.01 µM) was 82.8% and the viability, T/C (second compound 0.316 µM, first compound 0.0316 µM) was 71.5%. It also gave a viability, T/C (second compound 0.316 µM, first compound 0.1 µM) of 41.8%, a viability, T/C (second compound 0.316 µM, first compound 0.316 µM) of 22% and a viability, T/C (second compound 0.316 µM, first compound 1 µM) of 11.3%. For the same molecule, the viability, T/C (second compound 1 µM, first compound 0.00316 µM) was 92.8%, the viability, T/C (second compound 1 µM, first compound 0.01 µM) was 85.6% and the viability, T/C (second compound 1 µM, first compound 0.0316 µM) was 57.3%. It also gave a viability, T/C (second compound 1 µM, first compound 0.1 µM) of 39%, a viability, T/C (second compound 1 µM, first compound 0.316 µM) of 18.8% and a viability, T/C (second compound 1 µM, first compound 1 µM) of 9.3%.

O=C(c1cc(Cc2n[nH]c(=O)c3ccccc23)ccc1F)N1CCN(C(=O)C2CC2)CC1 was tested, and the viability, T/C (compound 0.0316 µM) was 105% and 66.7% and 98.1%, the viability, T/C (compound 0.1 µM) was 86.6% and 102% and 89.1% and the viability, T/C (compound 0.316 µM) was 101% and 116% and 79%. For the same molecule, the viability, T/C (compound 1 µM) was 104% and 108% and 117%, the viability, T/C (compound 3.16 µM) was 98.2% and 110% and 94.2% and the viability, T/C (compound 10 µM) was 87.7% and 91.1% and 80.9%. For the same molecule, the IC50 (curve of compound) was greater than 10 µM.

C=C(F)C(=O)N1CCN(c2nc(OCC3CCCN3C)nc3c2CCN(c2cccc4cccc(Cl)c24)C3)CC1CC#N (stereo not given) was tested, and the viability, T/C (compound 0.0316 µM) was 56.9% and 67.8% and 73.2%, the viability, T/C (compound 0.1 µM) was 51.6% and 58.2% and 53.8% and the viability, T/C (compound 0.316 µM) was 47.7% and 60% and 57.1%. The viability, T/C (compound 1 µM) was 59% and 70.1% and 72.8%, the viability, T/C (compound 3.16 µM) was 61.5% and 76.8% and 82.5% and the IC50 (curve of compound) was 3.55 µM and 4.84 µM and 5.67 µM.
